The test system of test [1] is chronic ethanol fed rats. As to the kind of experiment: Hepatotoxicity and fatty liver in chronic ethanol fed rats (serum ALT, liver triglyceride). In kind it is in vivo. The settings on record: wistar rat, ethanol diet with L-serine for 4 weeks (dose group not stated). How it is done: In order to investigate the effects of L-serine on the hepatotoxicity and fatty liver in chronic ethanol fed rats, ALT (s-GPT) enzyme activity in the serum and triglyceride level in the liver was determined according to the modified procedure disclosed in literature (Lee et al., Effect of Chlorella vulgaris on lipid metabolism in wistar rats fed high fat diet, Nut. […]. 2:204-210, 2008). Male wistar rat (170-190 g) procured from Central Lab. Animal Inc. (www.labanimal.co.kr) was bred according to GLP (Good Laboratory Practice) guideline in animal breeding room providing freely accessible water and solid feed, and acclimated with environment for 7 days before use. The breeding room was controlled by automatic light system from 8:00 A.M. to 8:00 P.M, for 12 hours with adjusting the temperature to 24° C. During the experiment, the rat was fed with liquid diet (Standard […].com) for providing appropriate calorie. […] The ALT (s-GPT) enzyme activity was determined by analysis kit (YD diagnostics Inc, www.yd-diagnostics.com) according to the Reitman-Frankel method disclosed in preceding literature. The level of triglyceride in the rat liver was determined by analysis kit analysis kit (Cat. No. TR0100, Sigma Aldrich Corp.) and the result was shown in FIG. 4.

The subject of test [2] is H4IIEC3 cell. The test can be described thus: Ethanol induced lipid accumulation in H4IIEC3 (Nile red staining). In kind it is cell-based, rodent. The conditions noted are these: H4IIEC3 cells, ethanol plus L-serine (0.1, 1, 10 mM tested; concentration of this value not stated), 48 hrs; ethanol control 63.4 unit; P<0.05. Here is the method:
In order to investigate the inhibitory effect of the test sample on ethanol induced lipid accumulation in H4IIEc3, following experiment was performed according to the modified procedure disclosed in literature (Yin et al., Honokiol reverses alcoholic fatty liver by inhibiting the maturation of sterol regulatory element binding protein-1c and expression of its downstream lipogenesis genes: Toxicol. Appl. Pharmacol. 236:124-130, 2009). H4IIEC 3 cell, a rodent liver cancer cell line, was procured from ATCC (American Type Culture Collection) and used in the experiment. The cell was cultured in RPMI1640 medium supplemented with 10% FBS, 100 U/ml of penicillin, […] of streptomycin at 37° C. in 5% CO2 incubator and 1 ml of the cell was distributed to 96-well (1×10^4/ml) to be stabilized until the cell had grown completely for 12-16 hours in 5% CO2 incubator. The cell was treated with ethanol or combination with ethanol with various concentration of L-serine (0.1 mM, 1 mM, and 10 mM) to incubate for 48 hrs. […] The inhibition of lipid accumulation was determined by determining the fluorescence intensity of the Nil red changed by accumulated lipid induced by alcohol 5 mins after Nile red treatment through the observation with microscopy or microplate reader at 480 nm/580 nm.

The subject of test [3] is acute fatty liver induced mouse model fed by alcohol. As to the kind of experiment: Fatty liver formation in acute fatty liver induced mouse model fed by alcohol (triglyceride level). The conditions noted are these: high dose group, 200 mg/kg L-serine orally twice plus ethanol. In kind it is in vivo. Here is the method: In order to investigate the inhibitory effect on the formation of fatty liver in acute fatty liver induced mouse model fed with alcohol, following experiment was performed according to the modified procedure disclosed in literature (Song et al., S-Adenosylmethione protects against acute alcohol induced hepatotoxicity in mice, J. Nutr. Biochem. 14:591-597, 2003). Male C57/BL mouse (19-21 g) procured from Central Lab. Animal Inc. (www.labanimal.co.kr) was bred according to GLP (Good Laboratory Practice) guideline in animal breeding room providing freely accessible water and solid feed, and acclimated with environment for 7 days before use. The breeding room was controlled by automatic light system from 8:00 A.M. to 8:00 P.M, for 12 hours with adjusting the temperature to 24° C. and the mouse was freely let to access to water and feed. […] The ALT (s-GPT) enzyme activity was determined by analysis kit (YD diagnostics Inc, www.yd-diagnostics.com) according to the Reitman-Frankel method disclosed in preceding literature. The level of triglyceride in […] was determined by analysis kit analysis kit (Cat. No. TR0100, Sigma Aldrich Corp.) and the result was shown in FIG. 2.

Test [4] concerns SREBP1. As to the kind of experiment: SREBP1 expression by Western blot in acute fatty liver induced mouse model fed by alcohol. The conditions noted are these: FIG. 3. In kind it is in vivo. How it is done:
(§1) In order to confirm whether the anti-steatotic effects of L-serine on alcoholic fatty liver is caused by the inhibition of SREBP1 activity or not, following experiment was performed according to the modified procedure disclosed in literature (Yin et al., Magnolia officinalis reverses alcoholic fatty liver by inhibiting the maturation of sterol regulatory element binding protein-1c, J. Pharmacol. Sci. 109:486-495, 2009). The expression of SREBP1 and its target gene product FAS were determined by the standard Western blot analysis using specific antibodies.
In general terms: In western blotting, separated proteins are transferred to a membrane and probed.

Test [5] deals with FAS. As to the kind of experiment: FAS expression by Western blot in acute fatty liver induced mouse model fed by alcohol. It is filed as in vivo. The conditions noted are these: FIG. 3. How it is done: as §1

In test [1] (liver, ethanol group 91.69 mg/g liver), `N[C@@H](CO)C(=O)O` [L-serine] yielded a hepatic triglyceride level of 53.4 mg/g liver. Moreover, in test [1] (serum, ethanol group 42.5 U/L), the ALT enzyme activity worked out at 24.67 U/L. The “fluorescence intensity of Nile red (lipid accumulation)” value in test [2] came out at 29 unit. For the same compound, the “triglyceride level reduced by” value in test [3] (C57/BL mouse) was 58.5%. Also, the triglyceride level in test [3] (ethanol treatment group 99.7 mg/g) is 52.4 mg/g. Besides, the SREBP1 activation result in test [4] is “inhibited”. Further, the FAS activation entry in test [5] is recorded as “inhibited”.

(Values after patent US9539226B2, “Composition containing serine as an active ingredient for the prevention and treatment of fatty liver diseases, and the use thereof” (SNU R&DB FOUNDATION, priority 2010, dated 2017).)
